Patent US20110195153A1, “Nutritional Formulation Comprising A Cows Milk Peptide Containing Hydrolysate And Or Peptides Derived Thereof For Tolerance Induction” (MEAD JOHNSON NUTRITION COMPANY, priority 2009, published 2011)
Several values for one entry are separate records, joined by “and”; a condition that tells them apart may be missing. Identical values can stand only once.

Tested on: T-cells
Assay: Tolerance induction experiment: T-cell fraction preincubated, combined with APCs and re-stimulated
Format: cell-based, human
Conditions: for mean cpm / cpm / SI: individual KF1; for cpm: individual experiments; for proliferation of T-cells when re-stimulated with cow's milk protein after preincubation with the substance: re-stimulated with whey protein concentrate VTP14 or rαS1-casein, in words
Description: For the tolerance induction experiment, PBMCs from healthy donors were isolated by Ficoll-density gradient, and the cells were further separated into two fractions. T-cells were enriched with a human Pan-T-cell isolation Kit (Miltenyi, Bergisch Gladbach, Germany), whereas antigen-presenting cells were enriched with human CD3 MicroBeads (Miltenyi, Bergisch Gladbach, Germany) by magnetic cell sorting.
The cell fractions containing the T-cells were incubated overnight with different peptides or medium alone at 37° C. with 5% CO2 and 95% humidity, the antigen-presenting-cell fractions were kept overnight at the same conditions without any antigens. On the next day, the T-cell fractions were washed with DPBS (GIBCO) three times and the T-cell and antigen-presenting-cell fractions were combined. The cells (2×10^5 cells per well) were cultured in triplicates in 96-well plates as described above. […] The analysis was done as described for the lymphoproliferative assays.
T-cell fractions were preincubated over night with high amounts of Nutramigen™ base (VTP11), extensive casein hydrolysate (VTP15), whole cow's milk whey protein (VTP14), Nutramigen™ (VTP3), synthetic peptides ([…], Phl p 5-Pep 1) or buffer (UCO). On the next day the T-cells and the APCs were combined and stimulated with milk samples (VTP14, VTP1). T cell stimulation is given either in counts per minute (cpm) or as stimulation index (SI).

[1] = T-cells tolerized with the substance, stimulated with UCO
[2] = tolerized with the substance, stimulated with IL-2
[3] = tolerized with the substance, stimulated with VTP1, first line
[4] = tolerized with the substance, stimulated with VTP1, second line
[5] = tolerized with the substance, stimulated with VTP14, first line
[6] = tolerized with the substance, stimulated with VTP14, second line

Sequence | mean cpm [1] [cpm] | SI [2] | mean cpm [2] [cpm] | SI [3] | mean cpm [3] [cpm] | SI [4] | mean cpm [4] [cpm] | SI [5] | mean cpm [5] [cpm] | SI [6] | mean cpm [6] [cpm] | proliferation of T-cells when re-stimulated with cow's milk protein after preincubation with the substance | also measured
CLKKYKVPQLEIVPNSAEERLHSMKEGIHAQQKE (listed as Bos taurus) [Cas4] | 16151 | 0.9 | 14533 | 0.4 | 6304 | 0.4 | 6621 | 1.3 | 20794 | 0.2 | 3747 | suppress the proliferation of T-cells | cpm (T-cells tolerized with the substance, stimulated with UCO, listed as αS2-PEP 4): 17694 cpm and 14608 cpm; cpm (tolerized with the substance, stimulated with IL-2, listed as αS2-PEP 4): 12704 cpm and 19463 cpm and 11433 cpm; cpm (tolerized with the substance, stimulated with VTP1, first line, listed as αS2-PEP 4): 6381 cpm and 6304 cpm and 6226 cpm; cpm (tolerized with the substance, stimulated with VTP1, second line, listed as αS2-PEP 4): 8231 cpm and 8478 cpm and 3154 cpm; cpm (tolerized with the substance, stimulated with VTP14, first line, listed as αS2-PEP 4): 16162 cpm and 25246 cpm; cpm (tolerized with the substance, stimulated with VTP14, second line, listed as αS2-PEP 4): 2790 cpm and 4703 cpm
CGAASNKAFAEGLSGEPKGAAESSSKAALTSK (Phleum pratense) [Phl P5-peptide 1, control peptide, grass pollen allergen] | 12522 | 1.2 | 14724 | 0.3 | 4295 | 0.5 | 6355 | 3.4 | 41970 | 0.2 | 2336 | – | cpm (T-cells tolerized with the substance, stimulated with UCO, listed as Ph1 p 5-Pep 1): 11263 cpm and 13457 cpm and 12846 cpm; cpm (tolerized with the substance, stimulated with IL-2, listed as Ph1 p 5-Pep 1): 14153 cpm and 17806 cpm and 12214 cpm; cpm (tolerized with the substance, stimulated with VTP1, first line, listed as Ph1 p 5-Pep 1): 4708 cpm and 3278 cpm and 4898 cpm; cpm (tolerized with the substance, stimulated with VTP1, second line, listed as Ph1 p 5-Pep 1): 6315 cpm and 6342 cpm and 6409 cpm; cpm (tolerized with the substance, stimulated with VTP14, first line, listed as Ph1 p 5-Pep 1): 38430 cpm and 45751 cpm and 41730 cpm; cpm (tolerized with the substance, stimulated with VTP14, second line, listed as Ph1 p 5-Pep 1): 3282 cpm and 2244 cpm and 1482 cpm
ISSSEEIVPNSVEQKHIQKEDVPSERYLGYEQLLRC (listed as Bos taurus) [Cas3] | – | – | – | – | – | – | – | – | – | – | – | suppress the proliferation of T-cells | proliferation of T-cells when re-stimulated with cow's milk protein after preincubation with the substance (listed as alphaS1-casein-derived peptide 3): suppressed the proliferation
